Experimental data taken from US9206198B2, “Inhibitors of the renal outer medullary potassium channel” (Merck Sharp & Dohme Corp., priority 2012, dated 2015).

Legend:
hROMK (hKir1.1) = hROMK (hKir1.1) (Homo sapiens (Human), UniProt P48048); experiment: Thallium Flux Assay (ROMK channel functional thallium flux assay, FLIPR-Tetra); assay type: cell-based; conditions: HEK293 cells stably expressing hROMK
Description: Cell Culture Conditions— HEK293 cells stably expressing hROMK (hKir1.1) were grown at 37° C. in a 10% CO2 humidified incubator in complete growth media: Dulbecco's Modified Eagle Medium supplemented with non-essential amino acids, Penicillin/Streptomycin/Glutamine, G418 and FBS. At >80% confluency, aspirate the media from the flask and rinse with 10 mL Calcium/Magnesium-free PBS. Add 5 mL of 1× trypsin (prepared in Ca/Mg Free PBS) to T-225 flask and return flask to 37° C./CO2 incubator for 2-3 minutes. To dislodge the cell, gently bang the side of the flask with your hand. Triturate the cells completely and then transfer the cells to 25 mL complete media. Centrifuge at 1,500 rpm for 6 min followed by resuspension in complete growth media and determine cell concentration. For typical re-seeding, 4E6 cells/T-225 flask will attain >80% confluency in 4 days. Under ideal growth conditions and appropriate tissue culture practices, this cell line is stable for 40-45 passages.
FluxOR Kit Components (Invitrogen F10017)
• FluxOR™ Reagent (Component A) • FluxOR™ Assay Buffer (Component B)—10× Concentrate • PowerLoad™ Concentrate (Component C)—100× Concentrate • Probenecid (Component D)—Lyophilized sample is kept at −20° C. Water soluble, 100×after solubilization in 1 mL water. Store at 4° C. • FluxOR™ Chloride-free Buffer (Component E)—5× Concentrate • Potassium sulfate (K2SO4) Concentrate (Component F)—125 mM in water. Store at 4° C. • Thallium sulfate (Tl2SO4) Concentrate (Component G)—50 mM in water. Store at 4° C. • DMSO (dimethyl sulfoxide, Component H)—1 mL (100%) Reagent Preparation: FluxOR Working Solutions • 1000× FluxOR™ Reagent: Reconstitute a vial of component A in 100 μl DMSO; Mix well; Store 10 μl aliquots at −20° C. • 1× FluxOR™ Assay Buffer: Dilute Component B 10-fold with water; Adjust pH to 7.4 with Hepes/NaOH; Filter and store at 4° C. • Probenecid/Assay Buffer: 100 mL of 1× FluxOR™ Assay Buffer; 1 mL of reconstituted component D; Store at 4° C. • Loading Buffer (per microplate): 10 μl 1000× FluxOR™ Reagent; 100 μl component C; 10 mL Probenecid/Assay Buffer • Compound Buffer (per microplate): 20 mL Probenecid/Assay Buffer; 0.3 mM ouabain (10 mM ouabain in water can be stored in amber bottle/aluminum foil at room temperature); Test compound • 1× FluxOR™ Chloride-Free Buffer: Prepare 1× working solution in water. Can be stored at room temperature • Stimulant Buffer (prepared at 5× final concentration in 1× FluxOR™ Chloride-Free Buffer): 7.5 mM Thallium sulfate and 0.75 mM Potassium sulfate (to give a final assay concentration of 3 mM Thallium 0.3 mM Potassium). Store at 4° C. when not in use. If kept sterile, this solution is good for months.
Assay Protocol—The ROMK channel functional thallium flux assay is performed in 384 wells, using the FLIPR-Tetra instrument. HEK-hKir1.1 cells are seeded in Poly-D-Lysine microplates and kept in a 37° C.-10% CO2 incubator overnight. On the day of the experiment, the growth media is replaced with the FluxOR™ reagent loading buffer and incubated, protected from light, at ambient temperature (23-25° C.) for 90 min. The loading buffer is replaced with assay buffer±test compound followed by 30 min incubation at ambient temperature, where the Thallium/Potassium stimulant is added to the microplate.
• 1. Seed HEK-hKir1.1 cells ([…] at 20,000 cells/well) in 384-well PDL coated Microplates • 2. Allow cells to adhere overnight in humidified 37° C./10% CO2 incubator • 3. Completely remove cell growth media from microplate and replace with 25 μl loading buffer • 4. Incubate Microplate at room temperature, protected form light, for 90 min • 5. Remove loading buffer and replace with 25 μl 1× Assay Buffer±test compound. • 6. Incubate microplate at room temperature, protected from light, for 30 min • 7. At FLIPR-Tetra 384: Add stimulant (Thallium/Potassium) solution to microplate and monitor fluorescence. Excitation=400 nm, Emission=460 & 580 nm. Collect data for 10 min.

Kir1.1 (ROMK1) = Kir1.1 (ROMK1) (Homo sapiens (Human), UniProt P48048); experiment: Electrophysiology Assay (whole cell voltage clamp, IonWorks Quattro); assay type: cell-based; conditions: Chinese hamster ovary cells stably expressing Kir1.1; block during voltage step to 0 mV
Description: Block of Kir1.1 (ROMK1) currents was examined by whole cell voltage clamp (Hamill et. al. Pfluegers Archives 391:85-100 (1981)) using the IonWorks Quattro automated electrophysiology platform (Molecular Devices, Sunnyvale, Calif.). Chinese hamster ovary cells stably expressing Kir1.1 channels were maintained in T-75 flasks in cell culture media in a humidified 10% CO2 incubator at 37° C. Prior to an experiment, Kir1.1 expression was induced by overnight incubation with 1 mM sodium butyrate. On the day of the experiment, cells were dissociated with 2.5 mL of Versene (Invitrogen 15040-066) for approximately 6 min at 37° C. and suspended in 10 mL of bath solution containing (in mM): 150 NaCl, 10 KCl, 2.7 CaCl2, 0.5 MgCl2, 5 HEPES, pH 7.4. After centrifugation, the cell pellet was resuspended in approximately 4.0 mL of bath solution and placed in the IonWorks instrument. The intracellular solution consisted of (in mM): 80 K gluconate, 40 KCl, 20 KF, 3.2 MgCl2, 3 EGTA, 5 Hepes, pH 7.4. Electrical access to the cytoplasm was achieved by perforation in 0.13 mg/mL amphotericin B for 4 min. Amphotericin B (Sigma A-4888) was prepared as a 40 mg/mL solution in DMSO. Voltage protocols and current recordings were performed using the IonWorks HT software/hardware system. Currents were sampled at 1 kHz. No correction for liquid junction potentials was used. The test pulse, consisting of a 100 ms step to 0 mV from a holding potential of −70 mV, followed by a 100 ms voltage ramp from −70 mV to +70 mV, was applied before and after a 6 min compound incubation period. Test compounds were prepared by diluting DMSO stock solutions into the bath solution at 3× the final concentration and placed in the instrument in 96-well polypropylene plates. Current amplitudes were measured using the IonWorks software. To assess compound potency, the fractional block during the voltage step to 0 mV was calculated in Microsoft Excel (Microsoft, Redmond, Calif.), and dose-response curves were fitted with Igor Pro 4.0 (WaveMetrics, Lake Oswego, Oreg.). Normally, a control compound is included to support that the assay is giving consistent results compared to previous measurements, although the control is not required to obtain the results for the test compounds.

Sequence of hROMK (hKir1.1) (P48048 whole entry): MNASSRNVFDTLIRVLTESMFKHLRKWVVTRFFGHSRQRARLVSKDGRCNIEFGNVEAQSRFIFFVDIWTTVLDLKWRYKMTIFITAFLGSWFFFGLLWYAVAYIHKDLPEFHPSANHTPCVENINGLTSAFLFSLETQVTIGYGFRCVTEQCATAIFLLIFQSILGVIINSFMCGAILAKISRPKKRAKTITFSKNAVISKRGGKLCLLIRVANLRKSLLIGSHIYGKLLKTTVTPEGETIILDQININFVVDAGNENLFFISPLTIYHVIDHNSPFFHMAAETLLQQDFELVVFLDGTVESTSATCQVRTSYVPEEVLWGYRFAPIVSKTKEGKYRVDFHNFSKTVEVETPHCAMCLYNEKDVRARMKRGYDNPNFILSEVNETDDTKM
Sequence of Kir1.1 (ROMK1) (P48048 whole entry, species assumed): as the sequence (P48048 whole entry) above

Structure (SMILES)	IC50 (hROMK (hKir1.1))	IC50 (Kir1.1 (ROMK1))
CO[C@@H](CN1CCC2(CC1)CCN(C1=CC(=O)OC1)C2=O)c1ccc2c(c1C)COC2=O [Example 51, 8-[(2R)-2-methoxy-2-(4-methyl-1-oxo-1,3-dihydro-2-benzofuran-5-yl)ethyl]-2-(5-oxo-2,5-dihydrofuran-3-yl)-2,8-diazaspiro[4.5]decan-1-one]	310 nM	20 nM
COC1CN(C[C@H](O)c2ccc3c(c2C)COC3=O)CCC12CCN(C1=C(C)C(=O)OC1)C2=O (stereo partly shown) [Example 83]	40 nM	50 nM
